The results in this text go back to paper PMC11062899, “De novo development of small cyclic peptides that are orally bioavailable” (Nature Chemical Biology, 2023).

The target of this test is human α-thrombin (Homo sapiens, UniProt P00734). Kind of test: Sub-library screen for active and permeable cyclic peptides (PAMPA plus thrombin inhibition). Type of test: biochemical. As to conditions: crude, slopes normalized to DMSO; for Residual thrombin activity: Top sample: PAMPA acceptor well after 14 h, 5 μM donor; for Residual thrombin activity: Equilibrated sample: donor sample diluted to theoretical equilibrium (1 μM in assay). As to the method: Linear dithiol peptides were synthesized in fritted 5-ml polypropylene syringes on a MultiPep RSi parallel peptide synthesizer (Intavis) by standard Fmoc-based solid-phase peptide synthesis on cysteamine 2-chlorotrityl resin (Sigma-Aldrich, 8.56000, 1.63 mmol g^−1 loading, 25 μmol scale) as described above with small changes. Amino acids (65 μmol, 2.6 eq.) were activated with HATU (63 μmol, 2.5 eq.) and NMM (145 μmol, 5.8 eq.) in 280 μl of DMF and 5 μl of NMP and let to react with the resin (25 μmol, 1 eq.) for 45 min. Couplings were performed twice for each amino acid. Resin was washed once with 800 μl of DMF, and unreacted amines were capped with 5% acetic anhydride and 6% 2,6-lutidine in 400 μl of DMF for 5 min. The resin was washed six times with 600 μl of DMF, and Fmoc protecting groups were removed by incubating the resin twice with 450 μl of a 20% piperidine solution in DMF for 5 min. The resin was washed six times with 600 μl of DMF before proceeding to the next coupling cycle. After completing the last coupling cycle, the resin was washed six times with […] of DCM. Peptide cleavage and ether precipitation were carried out as described above. After quantification with Ellman’s reagent, 1 μmol of each peptide was transferred in seven replicates to new Nunc 96-well DeepWell polypropylene plates and lyophilized. Peptides were cyclized as described above to afford 20 mM cyclic peptide stock solutions in DMSO containing 160 mM HEPES sodium salt. The amine on cyclic peptides was acylated with 5-chlorothiophene-2-carboxylic acid as follows. A 160 mM solution in 5-chlorothiophene-2-carboxylic acid was prepared in DMSO containing 160 mM HEPES sodium salt, and the acid was activated by mixing in equal volumes with a 160 mM HSTU solution in DMSO. Then, 10 μl of the activated carboxylic acid solutions and the cyclic peptide stocks were placed in Echo Qualified 384-well Low Dead Volume microplates (Labcyte), and 400 nl of cyclic peptide and 400 nl of HSTU-activated 5-chlorothiophene-2-carboxylic acid were transferred combinatorially to 384-well microplates (Greiner, 781076) using the Echo 650 acoustic liquid handler (Labcyte). Plates were centrifuged at 2,000 g for 2 min, and the reaction was allowed to proceed at room temperature for 8 h before addition of 39.2 μl of DMSO with a CERTUS FLEX liquid dispenser (Gyger). A volume of 25 μl of the resulting DMSO solutions was diluted with PBS buffer at pH 7.4 containing 5% DMSO in Nunc 96-well DeepWell polypropylene plates to afford 5 μM solutions of the acylated peptides.
The PAMPA plates were covered with a lid to avoid evaporation and incubated for 14 h at room temperature. Additionally, a diluted donor sample was prepared at the concentration representing theoretical maximum permeability (3 μM). Thereby, 30 μl of the donor sample before incubation was diluted with 20 μl of PBS buffer at pH 7.4 containing 5% DMSO. Volumes of 16 μl of each acceptor well and the diluted donor samples were transferred to a 384-well microplate (Greiner, 781076), and thrombin activity was measured as follows. Human α-thrombin (16 μl, 6 nM, Molecular Innovations) in assay buffer was dispensed into each well using a CERTUS FLEX liquid dispenser (Gyger), and plates were incubated at room temperature for 10 min. Then, 16 μl of a 150 μM fluorogenic thrombin substrate solution (Z-Gly-Gly-Arg-AMC, Bachem) in assay buffer containing 1% DMSO was added to each well, and thrombin inhibition was determined by measuring the fluorescent gain over time. Fluorescence intensity was measured on a Tecan Infinite M200 Pro microplate reader for 30 min at 25 °C with a fluorescent readout every 3 min (excitation: 360 nm, emission: 465 nm). Protease inhibition was calculated by comparing the enzymatic activity to a control without cyclic peptide.

For the compound `O=C1C[C@H]2CCCN2C(=O)[C@H](Cc2ccc(C(F)(F)F)cc2)NC(=O)[C@@H](NC(=O)c2ccc(Cl)s2)CCSCCS(=O)(=O)CCSCCN1` [C2-X36-L2], the “Residual thrombin activity: Top sample” value amounted to 101.5 and the “Residual thrombin activity: Equilibrated sample” value worked out at 101.8.

Take `O=C1C[C@H]2CCCN2C(=O)[C@@H](Cc2ccccc2)NC(=O)[C@@H](NC(=O)c2ccc(Cl)s2)CCSC/C=C/CSCCN1` [C2-X31-L4]: the “Residual thrombin activity: Top sample” value was found to be 98.4 and the “Residual thrombin activity: Equilibrated sample” value is 104.3.

In the case of `N#Cc1ccc(C[C@@H]2NC(=O)[C@@H](NC(=O)c3ccc(Cl)s3)CCCSC/C=C/CSCCNC(=O)C[C@H]3CCCN3C2=O)cc1` [C3-X35-L4], the “Residual thrombin activity: Top sample” value is listed as 103.2 and the “Residual thrombin activity: Equilibrated sample” value worked out at 97.2.

Regarding `N#Cc1ccc(C[C@@H]2NC(=O)[C@@H](NC(=O)c3ccc(Cl)s3)CSCCS(=O)(=O)CCSCCNC(=O)C[C@H]3CCCN3C2=O)cc1` [C1-X35-L2], the “Residual thrombin activity: Top sample” value is recorded as 95.6 and the “Residual thrombin activity: Equilibrated sample” value is 96.6.

Turning to `O=C1C[C@H]2CCCN2C(=O)[C@H](Cc2ccc(C(F)(F)F)cc2)NC(=O)[C@@H](NC(=O)c2ccc(Cl)s2)CCSCc2ccccc2CSCCN1` [C2-X36-L6], the “Residual thrombin activity: Top sample” value is recorded as 96.8 and the “Residual thrombin activity: Equilibrated sample” value worked out at 97.9.

Take `O=C1C[C@H]2CCCN2C(=O)[C@@H](Cc2ccccc2)NC(=O)[C@@H](NC(=O)c2ccc(Cl)s2)CCSCc2cccc(n2)CSCCN1` [C2-X31-L1]: the “Residual thrombin activity: Top sample” value worked out at 93.0 and the “Residual thrombin activity: Equilibrated sample” value is given as 90.7.

In the case of `COc1ccc(C[C@@H]2NC(=O)[C@@H](NC(=O)c3ccc(Cl)s3)CSCC(=O)CSCCNC(=O)C[C@H]3CCCN3C2=O)cc1` [C1-X33-L7], the “Residual thrombin activity: Top sample” value is on record as 97.9 and the “Residual thrombin activity: Equilibrated sample” value was 101.4.

For `O=C1C[C@H]2CCCN2C(=O)[C@H](Cc2ccc(C(F)(F)F)cc2)NC(=O)[C@@H](NC(=O)c2ccc(Cl)s2)CSCc2ccccc2CSCCN1` [C1-X36-L6], the “Residual thrombin activity: Top sample” value is given as 91.2 and the “Residual thrombin activity: Equilibrated sample” value is on record as 94.8.

Consider `N#Cc1ccc(C[C@@H]2NC(=O)[C@@H](NC(=O)c3ccc(Cl)s3)CCSCC(=O)CSCCNC(=O)C[C@H]3CCCN3C2=O)cc1` [C2-X35-L7], for which the “Residual thrombin activity: Top sample” value is given as 103.0 and the “Residual thrombin activity: Equilibrated sample” value is given as 104.7.

Turning to `COc1ccc(C[C@@H]2NC(=O)[C@@H](NC(=O)c3ccc(Cl)s3)CSCc3cccc(c3)CSCCNC(=O)C[C@H]3CCCN3C2=O)cc1` [C1-X33-L5], the “Residual thrombin activity: Top sample” value was found to be 99.7 and the “Residual thrombin activity: Equilibrated sample” value amounted to 99.3.

With `O=C1C[C@H]2CCCN2C(=O)[C@H](Cc2ccc(C(F)(F)F)cc2)NC(=O)[C@@H](NC(=O)c2ccc(Cl)s2)CCCSCCS(=O)(=O)CCSCCN1` [C3-X36-L2], the “Residual thrombin activity: Top sample” value amounted to 105.4 and the “Residual thrombin activity: Equilibrated sample” value came to 99.8.

Regarding `CN1C(=O)[C@@H](NC(=O)c2ccc(Cl)s2)CCSCc2ccc(cc2)CSCCNC(=O)C[C@H]2CCCN2C(=O)[C@@H]1Cc1ccccc1` [C2-X32-L3], the “Residual thrombin activity: Top sample” value is listed as 97.8 and the “Residual thrombin activity: Equilibrated sample” value was determined as 96.9.

In the case of `Cc1cccc(C[C@@H]2NC(=O)[C@@H](NC(=O)c3ccc(Cl)s3)CCCSC/C=C/CSCCNC(=O)C[C@H]3CCCN3C2=O)c1` [C3-X37-L4], the “Residual thrombin activity: Top sample” value turned out to be 84.2 and the “Residual thrombin activity: Equilibrated sample” value is given as 63.6.

For the compound `N#Cc1ccc(C[C@@H]2NC(=O)[C@@H](NC(=O)c3ccc(Cl)s3)CSCc3ccc(cc3)CSCCNC(=O)C[C@H]3CCCN3C2=O)cc1` [C1-X35-L3], the “Residual thrombin activity: Top sample” value is 94.1 and the “Residual thrombin activity: Equilibrated sample” value was determined as 100.0.

Consider `O=C1C[C@H]2CCCN2C(=O)[C@@H](Cc2ccccc2)NC(=O)[C@@H](NC(=O)c2ccc(Cl)s2)CSCc2ccc(cc2)CSCCN1` [C1-X31-L3], for which the “Residual thrombin activity: Top sample” value worked out at 95.4 and the “Residual thrombin activity: Equilibrated sample” value worked out at 95.0.

Consider `N#Cc1ccc(C[C@@H]2NC(=O)[C@@H](NC(=O)c3ccc(Cl)s3)CCSCc3cccc(c3)CSCCNC(=O)C[C@H]3CCCN3C2=O)cc1` [C2-X35-L5], for which the “Residual thrombin activity: Top sample” value turned out to be 106.2 and the “Residual thrombin activity: Equilibrated sample” value was 101.3.

Take `CN1C(=O)[C@@H](NC(=O)c2ccc(Cl)s2)CCCSCc2cccc(c2)CSCCNC(=O)C[C@H]2CCCN2C(=O)[C@@H]1Cc1ccccc1` [C3-X32-L5]: the “Residual thrombin activity: Top sample” value is 103.6 and the “Residual thrombin activity: Equilibrated sample” value came out at 103.6.

Regarding `CN1C(=O)[C@@H](NC(=O)c2ccc(Cl)s2)CSCc2ccc(cc2)CSCCNC(=O)C[C@H]2CCCN2C(=O)[C@@H]1Cc1ccccc1` [C1-X32-L3], the “Residual thrombin activity: Top sample” value was found to be 91.1 and the “Residual thrombin activity: Equilibrated sample” value was determined as 94.0.

Turning to `O=C1C[C@H]2CCCN2C(=O)[C@H](Cc2ccccc2)NC(=O)[C@@H](NC(=O)c2ccc(Cl)s2)CSCc2cccc(n2)CSCCN1` [C1-X5-L1], the “Residual thrombin activity: Top sample” value is 77.6 and the “Residual thrombin activity: Equilibrated sample” value worked out at 68.5.

`O=C1C[C@H]2CCCN2C(=O)[C@@H](Cc2ccccc2)NC(=O)[C@@H](NC(=O)c2ccc(Cl)s2)CCCSCc2cccc(n2)CSCCN1` [C3-X31-L1]: the “Residual thrombin activity: Top sample” value was 96.1 and the “Residual thrombin activity: Equilibrated sample” value is recorded as 92.4.

Consider `COc1ccc(C[C@@H]2NC(=O)[C@@H](NC(=O)c3ccc(Cl)s3)CCCSCC(=O)CSCCNC(=O)C[C@H]3CCCN3C2=O)cc1` [C3-X33-L7], for which the “Residual thrombin activity: Top sample” value turned out to be 103.1 and the “Residual thrombin activity: Equilibrated sample” value was 99.9.

For the compound `CN1C(=O)[C@@H](NC(=O)c2ccc(Cl)s2)CCSCc2ccccc2CSCCNC(=O)C[C@H]2CCCN2C(=O)[C@@H]1Cc1ccccc1` [C2-X32-L6], the “Residual thrombin activity: Top sample” value is 94.2 and the “Residual thrombin activity: Equilibrated sample” value amounted to 95.9.

In the case of `N#Cc1ccc(C[C@@H]2NC(=O)[C@@H](NC(=O)c3ccc(Cl)s3)CSCc3cccc(n3)CSCCNC(=O)C[C@H]3CCCN3C2=O)cc1` [C1-X35-L1], the “Residual thrombin activity: Top sample” value stood at 91.5 and the “Residual thrombin activity: Equilibrated sample” value is given as 92.1.

`COc1ccc(C[C@@H]2NC(=O)[C@@H](NC(=O)c3ccc(Cl)s3)CCCSCc3cccc(n3)CSCCNC(=O)C[C@H]3CCCN3C2=O)cc1` [C3-X33-L1]: the “Residual thrombin activity: Top sample” value is recorded as 99.7 and the “Residual thrombin activity: Equilibrated sample” value is given as 94.6.

In the case of `Cc1cccc(C[C@@H]2NC(=O)[C@@H](NC(=O)c3ccc(Cl)s3)CCCSCc3cccc(c3)CSCCNC(=O)C[C@H]3CCCN3C2=O)c1` [C3-X37-L5], the “Residual thrombin activity: Top sample” value was determined as 100.9 and the “Residual thrombin activity: Equilibrated sample” value came to 83.4.

Consider `Cc1cccc(C[C@@H]2NC(=O)[C@@H](NC(=O)c3ccc(Cl)s3)CCCSCC(=O)CSCCNC(=O)C[C@H]3CCCN3C2=O)c1` [C3-X37-L7], for which the “Residual thrombin activity: Top sample” value is given as 84.8 and the “Residual thrombin activity: Equilibrated sample” value is listed as 58.3.

Turning to `O=C1C[C@H]2CCCN2C(=O)[C@H](Cc2ccc(C(F)(F)F)cc2)NC(=O)[C@@H](NC(=O)c2ccc(Cl)s2)CCCSCc2ccc(cc2)CSCCN1` [C3-X36-L3], the “Residual thrombin activity: Top sample” value is reported as 101.9 and the “Residual thrombin activity: Equilibrated sample” value is 98.7.

On to `Cc1cccc(C[C@@H]2NC(=O)[C@@H](NC(=O)c3ccc(Cl)s3)CSCC(=O)CSCCNC(=O)C[C@H]3CCCN3C2=O)c1` [C1-X37-L7], for which the “Residual thrombin activity: Top sample” value was 94.3 and the “Residual thrombin activity: Equilibrated sample” value worked out at 97.7.
